Measured values taken from patent US20050014215A1, “Method and medium for the detecting/identifying microorganisms with esterase and/or r osidase and/or peptidase and/or sulfatase and/or phosphatase activity” (priority 2000, published 2005).

Columns and labels:
[1] = Substrate solubility with different FASE (Example 8); type: physicochemical
Method: Different stock solutions of substrate are prepared in DMSO in the presence of Tween® 20, Tween® 80 (polyethoxylated sorbitan monooleate), Tween® 60 (polyethoxylated sorbitan monostearate) or Tween® 65 (polyethoxylated sorbitan tristearate). A volume corresponding to a final concentration of 500 mg/l of substrate is then added to a supercooled gelled medium, namely MacConkey medium.

[2] = Appearance of stock solutions of 2-alizarin octanoate in solvent/Tween 20 (Example 7); type: physicochemical; conditions: 60% Tween 20
Method: The substrate tested is 1,2-dihydroxyanthraquinone octanoate (2-alizarin octanoate). Different stock solutions of substrate are prepared with DMF, DMSO, methanol or methoxyethanol as solvent and in the presence of Tween® 20 in all cases.

Substance	substrate solubility [1]	Appearance of the stock solution ([2]; 40% DMF)	Appearance of the stock solution ([2]; 40% DMSO)	Appearance of the stock solution ([2]; 40% methanol)	Appearance of the stock solution ([2]; 40% methoxyethanol)
polyethoxylated sorbitan monostearate (20 EO) [TWEEN® 60]	good substrate solubility	–	–	–	–
1,2-dihydroxyanthraquinone octanoate [2-alizarin octanoate]	–	total	precipitate	precipitate	total
